Measured values reported in article PMC8245323 (2021).

Columns and labels:
[1] = system: G4 Kit1 (FRET) (DNA, G4) GGGAGGGCGCTGGGAGGAGGG; assay: FRET melting; conditions: 60 mM potassium cacodylate; pH 7.4; increasing compound concentration up to 3 µM, 200 nM DNA
[2] = system: G4 Myc (FRET) (DNA, G4) TGAGGGTGGGTAGGGTGGGTAA; assay: FRET melting; conditions: 60 mM potassium cacodylate; pH 7.4; 1 µM compound, 200 nM DNA
[3] = system: G4 Telo (FRET) (DNA, G4) GGGTTAGGGTTAGGGTTAGGG; assay: FRET melting; conditions: 60 mM potassium cacodylate; pH 7.4; 1 µM compound, 200 nM DNA
[4] = system: G4 Telo (fluorescence quench) (DNA, G4) AGGGTTAGGGTTAGGGTTAGGGT; assay: fluorescence quench binding assay; conditions: 150 mM KCl; for Kd: 50 mM Tris HCl pH 7.2, 0.5% CHAPS, 0.05% Triton X-100, apparent, 9 nM DNA
[5] = system: G4 Kit1 (fluorescence quench) (DNA, G4) AGGGAGGGCGCTGGGAGGAGGG; assay: fluorescence quench binding assay; conditions: 150 mM KCl; for Kd: 50 mM Tris HCl pH 7.2, 0.5% CHAPS, 0.05% Triton X-100, apparent, 9 nM DNA
[6] = system: G4 Myc (fluorescence quench) (DNA, G4) TGGGGAGGGTGGGGAGGGTGGGGAAGG; assay: fluorescence quench binding assay; conditions: 150 mM KCl; for Kd: 50 mM Tris HCl pH 7.2, 0.5% CHAPS, 0.05% Triton X-100, apparent, 9 nM DNA
[7] = system: dsDNA (FRET) (DNA, hairpin, hexaethylene glycol (HEG, [(-CH2CH2O-)6]) linker between nucleotides 10 and 11) TATAGCTATATATAGCTATA; assay: FRET melting; conditions: 60 mM potassium cacodylate; pH 7.4; increasing compound concentration up to 3 µM, 200 nM DNA
[8] = system: dsDNA (fluorescence quench) (DNA, duplex) CAATCGGATCGAATTCGATCCGATTG; assay: fluorescence quench binding assay; conditions: 150 mM KCl; 50 mM Tris HCl pH 7.2, 0.5% CHAPS, 0.05% Triton X-100; apparent; 9 nM DNA
[9] = 50 mM Tris HCl pH 7.2, CHAPS, Triton X-100, highest concentration tested 5 µM

Compound | binding [1] | ΔTm [2] [°C] | ΔTm [3] [°C] | binding [4, 9] | binding [5, 9] | binding [6, 9] | Kd [6] [nM] | binding [7] | Kd [4] [nM] | Kd [5] [nM] | Kd [8]
C#CCCC1(CCC(=O)NC)N=N1 | no | 0 | 0 | no | no | no | – | – | – | – | –
NCCOc1cc(C(=O)Nc2cc(OCCN)c3ccccc3n2)nc(C(=O)Nc2cc(OCCN)c3ccccc3n2)c1 | – | – | – | – | – | – | 168 ± 8 | – | – | – | –
C#CCCC1(CCNCCOc2cc(C(=O)Nc3cc(OCCN)c4ccccc4n3)nc(C(=O)Nc3cc(OCCN)c4ccccc4n3)c2)N=N1 | yes | 14 | 25 | – | – | – | 197 ± 10 | no | 306 ± 6 | 323 ± 13 | > 5,000 nM
C#CCCC1(CCC(=O)NCCOCCOCCNCCOc2cc(C(=O)Nc3cc(OCCN)c4ccccc4n3)nc(C(=O)Nc3cc(OCCN)c4ccccc4n3)c2)N=N1 | yes | 13 | 27 | – | – | – | 439 ± 36 | no | 459 ± 25 | 669 ± 49 | > 5,000 nM
